Results reported in patent US8530665B2 (Eli Lilly and Company, priority 2010, dated 2013).
pIC50: −log10 of the molar value.

Columns and labels:
[1] = system: FGF9 induced ERK phosphorylation in Human RT112 bladder carcinoma cells; test: FGF9 induced p-ERK with BSA in RT112 cells; settings: RT-112, read-out: IC50 FGF9 induced p-ERK
Description: FGF9 Induced p-ERK with BSA
This yielded a 10 point dose-response curve ranging from 10-0.005 μM in 1% DMSO. The incubation is continued for 1 hour at 37° C. […] Cells are fixed by the addition of 30 μL of a 25% formaldehyde solution in phosphate buffered saline (PBS) (3.7% formaldehyde final concentration), and incubated 30 minutes at RT. Cells are washed 3× with PBS, followed by the addition of 100 μL of cold methanol and incubated for 30 minutes at −20° C. The methanol is removed and the cells are treated with PBS containing 0.1% TRITON® X-100(PBST), washed 3× with PBS, and incubated 15 minutes at RT.

[2] = system: FGF receptor 1 (bFGF induced ERK phosphorylation in HUVEC); test: AlphaScreen SureFire Detection of ERK phosphorylation (Thr202/Tyr204) in HUVEC; settings: Homo sapiens, read-out: IC50 b-FGF induced ERK phosphorylation (Thr202/Tyr204)
Description: AlphaScreen SureFire Detection of ERK Phosphorylation (Thr202/Tyr204) in Human Umbilical Vein Endothelial Cells (HUVEC)
The effect of compound on the inhibition of FGF receptor 1 is measured by monitoring the phosphorylation of ERK (pERK) in response to basic-Fibroblast growth factor (b-FGF) stimulation in Human Umbilical Endothelial cells (HUVEC). […] This is a homogeneous assay format utilizing the immuno-sandwich capture of the phosphorylated analyte followed by detection using antibody-coated ALPHASCREEN® beads (Perkin Elmer) to generate an amplified signal.
For the assay, cells are harvested by standard procedures and then counted. […] Plates are incubated overnight at 37° C., 5% CO2.
On the day of the assay, cells are serum starved in 100 μL EBM (endothelial cell basal) medium containing 1.5% FBS and 20 mg/mL BSA for 3 hours at 37° C., 5% CO2, then treated with 20 μM of 3× serially diluted compound in starvation medium for 1 hour at 37° C. This yielded a 10 point concentration-response curve ranging from 10-0.005 μM in 1% DMSO. After 1 hour compound treatment, cells are stimulated with 50 μL b-FGF (Sigma, F0291, final b-FGF concentration 50 ng/mL) at 37° C. for 15 minutes. In the wells containing cells and 50 μL stimulator b-FGF yields MAX signal, and cells with 10 μM positive control compound and 50 μL stimulator b-FGF as MIN. […]

Molecule `C[C@@H](Oc1ccc2[nH]nc(/C=C/c3cnn(CCO)c3)c2c1)c1c(Cl)cncc1Cl` [Preparation 10, (R)-(E)-2-(4-(2-(5-(1-(3,5-Dichloropyridin-4-yl)ethoxy)-1H-indazol-3-yl)vinyl)-1H-pyrazol-1-yl)ethanol] has a pIC50 [1] of 9.40 and a pIC50 [2] of 9.22.
